Usually half-life stands for how long it takes for the measured level to halve.

For series [1] the following is noted: cited from earlier work.
Series [2] in a line: two-hour rat biodistribution after tail vein injection (NaI scintillation counting of dissected tissues). Particulars: in vivo. The source says:
Quantitative biodistributions were obtained by injecting 50-100 microliters of the composition into the tail vein of unanesthetized male Sprague Dawley rats. The rats were then placed in cages lined with absorbent paper in order to collect all urine excreted prior to sacrifice. After a given period of time, the rats were sacrificed by cervical dislocation and the various tissues dissected. The samples were then rinsed with saline, blotted dry on absorbent paper and weighed.

The conditions of series [3]: radionuclide; cited from earlier work.
Where [4] appears, read: patients with metastatic bone lesions.

Turning to `NC(c1ccc(O)c([131I])c1)(P(=O)(O)O)P(=O)(O)O` [α-amino-(3-iodo-4-hydroxybenzylidene)diphosphonate], the possible metabolite entry in series [1] (in vivo) is given as “iodide as one of the possible metabolites”. As for “Sm-153-diethylenetriaminepentaacetic acid [Sm-153-DTPA]”, the “skeletal uptake (in words)” value in series [2] is recorded as “low skeletal uptake”. As to “Sm-153-nitrilotriacetic acid [Sm-153-NTA]”, the “liver uptake (in words)” value in series [2] is “high liver uptake”. Take Strontium-89: in series [3], the half-life was 50.4 days. In addition, in series [1] (setting [4]), the blood levels result is on record as “high blood levels” and the “lesion to normal bone ratios” value is given as “low lesion to normal bone ratios”.

(Values after US4897254A, “Radioactive compositions for the treatment of calcific tumors” (priority 1987, dated 1990).)
